From article PMC12708883 (Frontiers in Microbiology, 2025)

Legend:
YhjE [1] = target: T1, YhjE (Escherichia coli, UniProt P37643); assay: inhibition of L-[3H]isoleucine uptake into whole cells, […] min; type: cell-based; details: 50 μM L-[3H]isoleucine, M9 + 0.2% glucose, 37 °C; B2394[pBR-yhjE]; single replicate
T1 sequence (P37643 1-440): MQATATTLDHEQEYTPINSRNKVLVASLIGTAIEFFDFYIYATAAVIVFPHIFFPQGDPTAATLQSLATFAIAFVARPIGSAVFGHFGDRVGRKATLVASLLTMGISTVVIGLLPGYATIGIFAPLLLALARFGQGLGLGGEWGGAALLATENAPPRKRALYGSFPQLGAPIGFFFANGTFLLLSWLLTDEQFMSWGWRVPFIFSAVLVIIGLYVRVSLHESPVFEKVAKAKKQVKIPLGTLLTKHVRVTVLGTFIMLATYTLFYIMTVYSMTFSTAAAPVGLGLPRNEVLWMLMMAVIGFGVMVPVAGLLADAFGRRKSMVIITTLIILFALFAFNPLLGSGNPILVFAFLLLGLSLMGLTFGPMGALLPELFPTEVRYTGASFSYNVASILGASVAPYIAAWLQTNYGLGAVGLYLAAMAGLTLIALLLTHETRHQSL

LIV-I (LivJFGHM) = target: T2, LIV-I (LivJFGHM) (Escherichia coli, UniProt P0AD96); assay: radiolabelled uptake into whole cells, […] min; type: cell-based; details: sole carrier strain, M9 + 0.2% glucose, 37 °C; labelled compound
T2 construct: gene livJ; native chromosomal genes, sole carrier in brnQ yhjE double mutant cells

YhjE [2] = target: YhjE (Escherichia coli, UniProt P37643, P55S); assay: radiolabelled uptake into whole cells, […] min; type: cell-based; details: 50 μM substrate, M9 + 0.2% glucose, 37 °C; B2933 with mutant pBR-yhjE; labelled compound
YhjE [3] = target: YhjE (Escherichia coli, UniProt P37643, M359I); assay: radiolabelled uptake into whole cells, […] min; type: cell-based; details: 50 μM substrate, M9 + 0.2% glucose, 37 °C; B2933 with mutant pBR-yhjE; labelled compound
YhjE [4] = target: YhjE (Escherichia coli, UniProt P37643, S271F/V290M); assay: radiolabelled uptake into whole cells, […] min; type: cell-based; details: 50 μM substrate, M9 + 0.2% glucose, 37 °C; B2933 with mutant pBR-yhjE; labelled compound
BrnQ = target: T3, BrnQ (Escherichia coli, UniProt P0AD99); assay: radiolabelled uptake into whole cells, […] min; type: cell-based; details: sole carrier strain, M9 + 0.2% glucose, 37 °C; labelled compound
T3 construct: native chromosomal gene, sole carrier in livKHMGF yhjE double mutant cells

YhjE [5] = target: YhjE (Escherichia coli, UniProt P37643, T273I); assay: radiolabelled uptake into whole cells, […] min; type: cell-based; details: 50 μM substrate, M9 + 0.2% glucose, 37 °C; B2933 with mutant pBR-yhjE; labelled compound
YhjE [6] = target: YhjE (Escherichia coli, UniProt P37643, T276I); assay: radiolabelled uptake into whole cells, […] min; type: cell-based; details: 50 μM substrate, M9 + 0.2% glucose, 37 °C; B2933 with mutant pBR-yhjE; labelled compound
[7] = substrate: CC(C)[C@H](N)C(=O)O; assay: radiolabelled uptake into whole cells; type: cell-based, Escherichia coli; details: M9 + 0.2% glucose, 37 °C, B2933[pUC-yhjE], proton symport, labelled compound
[8] = substrate: CC[C@H](C)[C@H](N)C(=O)O; assay: radiolabelled uptake into whole cells; type: cell-based, Escherichia coli; details: M9 + 0.2% glucose, 37 °C, B2933[pUC-yhjE], proton symport, labelled compound

YhjE (Escherichia coli, UniProt P37643, S271F/V290M), sequence (P37643 whole entry S271F/V290M): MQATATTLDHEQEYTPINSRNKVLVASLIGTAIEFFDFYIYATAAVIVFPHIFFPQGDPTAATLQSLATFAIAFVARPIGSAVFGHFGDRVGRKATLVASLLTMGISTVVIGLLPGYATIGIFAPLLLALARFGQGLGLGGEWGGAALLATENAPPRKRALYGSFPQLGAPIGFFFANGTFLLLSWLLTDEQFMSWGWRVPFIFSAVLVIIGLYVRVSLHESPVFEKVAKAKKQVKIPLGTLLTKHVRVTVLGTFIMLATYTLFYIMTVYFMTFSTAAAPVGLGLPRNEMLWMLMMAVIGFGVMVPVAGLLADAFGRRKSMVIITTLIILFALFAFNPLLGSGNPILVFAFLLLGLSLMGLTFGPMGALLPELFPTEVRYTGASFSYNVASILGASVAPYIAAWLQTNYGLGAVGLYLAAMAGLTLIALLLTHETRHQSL
YhjE (Escherichia coli, UniProt P37643, T276I), sequence (P37643 whole entry T276I): as the sequence (P37643 whole entry S271F/V290M) above, with F271S, T276I, M290V counted along it
YhjE (Escherichia coli, UniProt P37643, M359I), sequence (P37643 whole entry M359I): as the sequence (P37643 whole entry S271F/V290M) above, with F271S, M290V, M359I counted along it
T3 sequence (P0AD99 whole entry): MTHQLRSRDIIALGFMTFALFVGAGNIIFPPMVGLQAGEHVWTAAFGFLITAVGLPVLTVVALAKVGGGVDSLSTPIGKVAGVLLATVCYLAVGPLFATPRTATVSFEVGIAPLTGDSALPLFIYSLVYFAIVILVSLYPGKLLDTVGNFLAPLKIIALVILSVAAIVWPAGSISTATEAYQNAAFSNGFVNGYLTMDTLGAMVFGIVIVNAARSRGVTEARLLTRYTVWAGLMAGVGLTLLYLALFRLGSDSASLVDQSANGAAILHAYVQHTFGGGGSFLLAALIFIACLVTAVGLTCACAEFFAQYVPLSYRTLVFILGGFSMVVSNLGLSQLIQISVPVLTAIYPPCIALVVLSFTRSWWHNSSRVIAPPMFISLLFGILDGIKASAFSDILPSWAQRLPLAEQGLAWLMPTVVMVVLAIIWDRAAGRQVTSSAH
YhjE (Escherichia coli, UniProt P37643, T273I), sequence (P37643 whole entry T273I): as the sequence (P37643 whole entry S271F/V290M) above, with F271S, T273I, M290V counted along it
YhjE (Escherichia coli, UniProt P37643, P55S), sequence (P37643 whole entry P55S): as the sequence (P37643 whole entry S271F/V290M) above, with P55S, F271S, M290V counted along it
T2 sequence (P0AD96 24-367): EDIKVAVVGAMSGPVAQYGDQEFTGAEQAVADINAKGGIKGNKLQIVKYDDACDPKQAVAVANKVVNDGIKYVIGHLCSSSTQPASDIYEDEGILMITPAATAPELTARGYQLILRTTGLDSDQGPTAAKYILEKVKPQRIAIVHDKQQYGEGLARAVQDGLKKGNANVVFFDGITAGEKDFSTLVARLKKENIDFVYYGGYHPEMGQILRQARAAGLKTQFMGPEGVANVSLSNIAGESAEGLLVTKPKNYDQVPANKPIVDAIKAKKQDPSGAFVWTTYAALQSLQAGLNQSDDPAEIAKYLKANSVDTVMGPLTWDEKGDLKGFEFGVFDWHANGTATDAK
T2 sequence (P0AEX7 whole entry partner): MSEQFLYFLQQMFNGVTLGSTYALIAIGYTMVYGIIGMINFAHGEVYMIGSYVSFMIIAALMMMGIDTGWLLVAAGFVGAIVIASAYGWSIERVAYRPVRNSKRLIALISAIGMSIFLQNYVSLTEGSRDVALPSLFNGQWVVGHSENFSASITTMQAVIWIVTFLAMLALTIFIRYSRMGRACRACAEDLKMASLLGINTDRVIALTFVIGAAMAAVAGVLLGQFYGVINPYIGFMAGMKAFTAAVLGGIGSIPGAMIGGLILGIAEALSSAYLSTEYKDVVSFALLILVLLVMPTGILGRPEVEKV
T2 sequence (P22729 whole entry partner): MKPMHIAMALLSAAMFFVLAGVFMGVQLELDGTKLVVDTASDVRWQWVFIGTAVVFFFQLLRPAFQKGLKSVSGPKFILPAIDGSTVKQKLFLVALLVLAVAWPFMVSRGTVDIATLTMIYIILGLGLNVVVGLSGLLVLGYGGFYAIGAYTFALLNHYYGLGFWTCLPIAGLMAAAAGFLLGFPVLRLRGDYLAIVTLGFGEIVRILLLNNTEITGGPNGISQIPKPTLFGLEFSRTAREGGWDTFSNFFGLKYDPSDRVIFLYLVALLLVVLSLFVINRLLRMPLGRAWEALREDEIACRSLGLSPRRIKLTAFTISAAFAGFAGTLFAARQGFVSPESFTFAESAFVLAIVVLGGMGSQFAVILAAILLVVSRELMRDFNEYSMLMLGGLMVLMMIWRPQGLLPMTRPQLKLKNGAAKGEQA
T2 sequence (P22731 whole entry partner): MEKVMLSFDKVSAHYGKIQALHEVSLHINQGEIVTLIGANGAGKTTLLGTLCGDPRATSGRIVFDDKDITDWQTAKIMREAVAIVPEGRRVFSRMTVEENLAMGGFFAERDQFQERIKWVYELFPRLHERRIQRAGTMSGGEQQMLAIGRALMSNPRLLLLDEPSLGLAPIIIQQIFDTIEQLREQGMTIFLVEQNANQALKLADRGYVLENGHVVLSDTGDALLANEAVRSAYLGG
T2 sequence (P0A9S7 whole entry partner): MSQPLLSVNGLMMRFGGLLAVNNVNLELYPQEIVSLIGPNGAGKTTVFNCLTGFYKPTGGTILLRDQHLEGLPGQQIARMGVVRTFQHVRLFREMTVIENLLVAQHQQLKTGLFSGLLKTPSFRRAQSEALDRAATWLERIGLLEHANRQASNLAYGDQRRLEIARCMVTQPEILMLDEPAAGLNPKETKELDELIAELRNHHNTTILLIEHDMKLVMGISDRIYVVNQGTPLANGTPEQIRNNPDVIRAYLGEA

N[C@@H](CS)C(=O)O [L-cysteine]
% inhibition at 30-fold molar excess (YhjE [1]): L-tyrosine and L-cysteine, which are structurally unrelated to branched-chain amino acids, produced pronounced inhibitory effects

CC[C@H](C)[C@H](N)C(=O)O [L-isoleucine]
uptake rate (LIV-I (LivJFGHM)): Comparison of L-isoleucine–specific activity of YhjE, LIV-I, and BrnQ | uptake rate (YhjE [2]): L-isoleucine uptake was concomitantly reduced | uptake rate (YhjE [3]): L-isoleucine uptake was concomitantly reduced | uptake rate (YhjE [4]): L-isoleucine uptake was concomitantly reduced | uptake rate (BrnQ): Comparison of L-isoleucine–specific activity of YhjE, LIV-I, and BrnQ | uptake rate (YhjE [5]): L-isoleucine uptake was concomitantly reduced | uptake rate (YhjE [6]): L-isoleucine uptake was concomitantly reduced

CC(C)C[C@H](N)C(=O)O [L-leucine]
uptake rate (YhjE [2]): In every case, L-leucine uptake was elevated relative to cells harboring the wild-type pBR-yhjE | uptake rate (YhjE [3]): YhjE M359I variant exhibited L-leucine transport activity more than twofold higher than the wild type | uptake rate (YhjE [4]): In every case, L-leucine uptake was elevated relative to cells harboring the wild-type pBR-yhjE | uptake rate (YhjE [5]): In every case, L-leucine uptake was elevated relative to cells harboring the wild-type pBR-yhjE | uptake rate (YhjE [6]): The lowest effect was observed for the T276I substitution

N[C@@H](Cc1ccc(O)cc1)C(=O)O [L-tyrosine]
% inhibition at 30-fold molar excess (YhjE [1]): L-tyrosine and L-cysteine, which are structurally unrelated to branched-chain amino acids, produced pronounced inhibitory effects

CC(C)[C@H](N)C(=O)O [L-valine]
uptake rate (BrnQ): Comparison of L-valine–specific activity of YhjE, LIV-I, and BrnQ

B1: YhjE (Escherichia coli K-12) (protein)
chain: T1 sequence (P37643 1-440)
Km [7]: 86.7 µM | Km [8]: 70.5 µM
